Reference: paper PMC7928206 (Toxicology in vitro : an international journal published in …, 2021)

Assays:
[1] = molecular target: T1, rat brain acetylcholinesterase (AChE) (Rattus norvegicus, UniProt P37136); type: biochemical; conditions: in brain and peripheral tissues
T1 sequence (P37136 32-614): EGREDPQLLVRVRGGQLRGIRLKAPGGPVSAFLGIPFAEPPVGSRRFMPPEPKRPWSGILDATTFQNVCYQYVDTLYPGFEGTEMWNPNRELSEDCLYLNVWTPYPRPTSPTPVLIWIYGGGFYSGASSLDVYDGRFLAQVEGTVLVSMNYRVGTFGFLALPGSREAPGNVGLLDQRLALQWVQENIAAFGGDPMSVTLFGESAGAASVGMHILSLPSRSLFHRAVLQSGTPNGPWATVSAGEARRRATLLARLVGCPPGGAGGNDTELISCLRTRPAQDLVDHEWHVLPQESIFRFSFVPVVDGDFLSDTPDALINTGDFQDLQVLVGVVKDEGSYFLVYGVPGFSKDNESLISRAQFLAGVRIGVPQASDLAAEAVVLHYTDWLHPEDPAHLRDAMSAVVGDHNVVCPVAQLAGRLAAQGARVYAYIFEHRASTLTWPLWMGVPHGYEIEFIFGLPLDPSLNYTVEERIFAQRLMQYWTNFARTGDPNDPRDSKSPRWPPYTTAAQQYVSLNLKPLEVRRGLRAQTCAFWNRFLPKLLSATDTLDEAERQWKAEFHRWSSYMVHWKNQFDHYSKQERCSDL

[2] = molecular target: rat serum butyrylcholinesterase (BChE) (Rattus norvegicus, UniProt Q9JKC1); type: biochemical
[3] = Observed stability of the compound; conditions: also propensity to adhere to glass

rat serum butyrylcholinesterase (BChE), sequence (Q9JKC1 24-597): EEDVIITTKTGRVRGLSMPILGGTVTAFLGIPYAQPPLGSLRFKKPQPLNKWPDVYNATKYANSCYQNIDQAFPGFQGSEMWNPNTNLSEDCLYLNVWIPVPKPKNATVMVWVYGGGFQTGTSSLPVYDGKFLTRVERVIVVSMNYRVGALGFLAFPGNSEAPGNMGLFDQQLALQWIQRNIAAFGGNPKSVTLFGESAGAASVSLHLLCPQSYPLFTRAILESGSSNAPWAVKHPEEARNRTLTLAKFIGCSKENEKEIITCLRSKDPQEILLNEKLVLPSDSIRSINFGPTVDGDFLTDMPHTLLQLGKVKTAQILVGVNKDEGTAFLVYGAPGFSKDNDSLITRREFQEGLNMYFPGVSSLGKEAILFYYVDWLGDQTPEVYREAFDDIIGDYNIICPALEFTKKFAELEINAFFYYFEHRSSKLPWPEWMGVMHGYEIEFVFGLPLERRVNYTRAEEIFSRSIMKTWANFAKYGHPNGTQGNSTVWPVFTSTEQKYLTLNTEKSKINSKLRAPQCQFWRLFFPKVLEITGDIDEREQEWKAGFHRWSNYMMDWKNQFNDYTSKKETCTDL

CCOP(=O)(OCC)Oc1nc(Cl)c(Cl)cc1Cl [Chlorpyrifos-oxon]
fold more potent AChE inhibitor than ethyl-ronnel-oxon [1]: about 70 fold

COP(=O)(OC)SCn1nnc2ccccc2c1=O [Azinphos-methyl-oxon]
Serum BChE inhibition, result in words [2]: not good inhibitors of serum BChE

CCOP(=O)(OCC)Oc1cc(C)nc(C(C)C)n1 [Diazoxon]
stability, result in words [3]: particularly unstable
